Experiments:
Met kinase [1] = biological target: T1, Met kinase (Homo sapiens, UniProt P08581); test: Met kinase inhibition (cell); type: cell-based
Target sequence in this assay (P08581 25-1390): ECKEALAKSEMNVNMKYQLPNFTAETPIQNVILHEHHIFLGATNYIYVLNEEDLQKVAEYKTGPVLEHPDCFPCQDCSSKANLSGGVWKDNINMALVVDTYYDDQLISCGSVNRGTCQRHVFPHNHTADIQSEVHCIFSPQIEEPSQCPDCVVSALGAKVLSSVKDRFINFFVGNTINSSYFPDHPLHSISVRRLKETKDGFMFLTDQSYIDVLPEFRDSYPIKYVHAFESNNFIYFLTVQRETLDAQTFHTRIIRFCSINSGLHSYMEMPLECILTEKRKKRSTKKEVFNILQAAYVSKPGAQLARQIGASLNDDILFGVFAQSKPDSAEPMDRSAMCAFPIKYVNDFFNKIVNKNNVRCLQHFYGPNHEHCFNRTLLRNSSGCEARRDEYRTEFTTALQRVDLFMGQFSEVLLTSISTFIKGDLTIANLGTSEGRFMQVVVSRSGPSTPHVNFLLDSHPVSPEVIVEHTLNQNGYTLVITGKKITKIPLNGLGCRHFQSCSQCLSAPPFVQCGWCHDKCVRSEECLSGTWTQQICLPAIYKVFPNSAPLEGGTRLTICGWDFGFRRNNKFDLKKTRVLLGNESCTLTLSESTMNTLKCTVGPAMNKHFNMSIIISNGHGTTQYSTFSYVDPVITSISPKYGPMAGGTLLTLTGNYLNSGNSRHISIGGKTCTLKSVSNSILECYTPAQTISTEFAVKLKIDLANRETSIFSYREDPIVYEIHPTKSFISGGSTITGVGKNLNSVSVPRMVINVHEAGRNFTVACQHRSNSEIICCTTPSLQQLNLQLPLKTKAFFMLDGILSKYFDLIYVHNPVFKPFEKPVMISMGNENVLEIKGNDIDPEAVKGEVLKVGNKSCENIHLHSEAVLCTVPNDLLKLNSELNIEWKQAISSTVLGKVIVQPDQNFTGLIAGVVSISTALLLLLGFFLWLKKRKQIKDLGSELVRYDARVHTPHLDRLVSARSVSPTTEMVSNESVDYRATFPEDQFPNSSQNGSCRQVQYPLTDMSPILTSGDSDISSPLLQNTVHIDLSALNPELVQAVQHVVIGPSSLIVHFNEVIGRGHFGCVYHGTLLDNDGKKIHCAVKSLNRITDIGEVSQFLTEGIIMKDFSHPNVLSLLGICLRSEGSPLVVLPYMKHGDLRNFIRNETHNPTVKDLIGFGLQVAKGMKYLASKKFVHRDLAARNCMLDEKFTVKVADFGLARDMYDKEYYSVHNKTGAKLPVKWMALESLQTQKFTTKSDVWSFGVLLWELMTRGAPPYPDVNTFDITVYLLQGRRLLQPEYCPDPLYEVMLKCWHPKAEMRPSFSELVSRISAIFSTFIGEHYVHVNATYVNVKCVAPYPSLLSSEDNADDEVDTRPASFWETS

Met kinase [2] = biological target: T1, Met kinase; test: Met kinase inhibition, flashplate method (enzyme); type: biochemical; design: 6His (N); purchased Upstate 14-526; host or cells: Sf21 insect cells (S. frugiperda), baculovirus
Text: According to the manufacturer's data (Met, active, Upstate, catalogue No. 14-526), Met kinase is expressed for the purposes of protein production in insect cells (Sf21; S. frugiperda) and subsequent affinity-chromatographic purification as “N-terminal 6His-tagged” recombinant human protein in a baculovirus expression vector.
The test plates used are 96-well Flashplate® microtitre plates from Perkin Elmer (Cat. No. SMP200). The components of the kinase reaction described below are pipetted into the assay plate. The Met kinase and the substrate poly Ala-Glu-Lys-Tyr, (pAGLT, 6:2:5:1), are incubated for 3 hrs at room temperature with radioactively labelled ^33P-ATP in the presence and absence of test substances in a total volume of 100 μl. The reaction is terminated using 150 μl of a 60 mM EDTA solution. After incubation for a further 30 min at room temperature, the supernatants are filtered off with suction, and the wells are washed three times with 200 μl of 0.9% NaCl solution each time. The measurement of the bound radioactivity is carried out by means of a scintillation measuring instrument (Topcount NXT, Perkin-Elmer).
The full value used is the inhibitor-free kinase reaction. This should be approximately in the range 6000-9000 cpm. The pharmacological zero value used is staurosporin in a final concentration of 0.1 mM. The inhibitory values (IC50) are determined using the RS1_MTS program.
Kinase reaction conditions per well: • 30 μl of assay buffer • 10 μl of substance to be tested in assay buffer with 10% of DMSO • 10 μl of ATP (final concentration 1 μM cold, 0.35 μCi of ^33P-ATP) • 50 μl of Met kinase/substrate mixture in assay buffer; • (10 ng of enzyme/well, 50 ng of pAGLT/well) • Solutions used: • Assay buffer: • 50 mM HEPES • 3 mM magnesium chloride • 3 μM sodium orthovanadate • 3 mM manganese(II) chloride • 1 mM dithiothreitol (DTT) • pH=7.5 (to be set using sodium hydroxide) • Stop solution: • 60 mM Titriplex III (EDTA) • ^33P-ATP: Perkin-Elmer; • Met kinase: Upstate, Cat. No. 14-526, Stock 1 μg/10 μl; spec. activity 954 U/mg; • Poly-Ala-Glu-Lys-Tyr, 6:2:5:1: Sigma Cat. No. P1152 In-Vivo Tests
Target sequence in this assay (P08581 956-1390 limits assumed): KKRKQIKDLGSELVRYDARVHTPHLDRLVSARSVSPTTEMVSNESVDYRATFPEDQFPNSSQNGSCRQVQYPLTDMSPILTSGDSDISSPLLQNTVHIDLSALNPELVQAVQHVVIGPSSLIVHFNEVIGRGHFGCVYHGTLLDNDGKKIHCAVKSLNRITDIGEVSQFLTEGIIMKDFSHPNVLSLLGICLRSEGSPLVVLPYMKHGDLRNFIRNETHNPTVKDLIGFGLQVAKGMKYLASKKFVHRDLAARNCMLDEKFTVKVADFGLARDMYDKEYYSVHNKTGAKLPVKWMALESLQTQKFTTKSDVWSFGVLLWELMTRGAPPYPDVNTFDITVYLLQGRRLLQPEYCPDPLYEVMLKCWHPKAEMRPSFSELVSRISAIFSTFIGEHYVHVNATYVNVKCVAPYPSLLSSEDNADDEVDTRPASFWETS

SMILES	IC50 (Met kinase [1]) [nM]	IC50 (Met kinase [2]) [nM]
OCCn1cc(-c2ccc3nnc(Cc4cccc(-c5ncc(Br)cn5)c4)n3n2)cn1 [Compound A43, 2-(4-{3-[3-(5-bromopyrimidin-2-yl)benzyl]-1,2,4-triazolo-[4,3-b]pyridazin-6-yl}pyrazol-1-yl)ethanol]	1 to 100	1 to 100
Cn1cc(-c2ccc3nnc(Cc4cccc(-c5ncc(OCCO)cn5)c4)n3n2)cn1 [Compound A34, 2-(2-{3-[6-(1-methyl-1H-pyrazol-4-yl)-1,2,4-triazolo[4,3-b]pyridazin-3-ylmethyl]-phenyl}pyrimidin-5-yloxy)ethanol]	1 to 100	
COCCCOc1cnc(-c2cccc(Cc3nnc4ccc(-c5cnn(C)c5)nn34)c2)nc1 [Compound A36, 3-{3-[5-(3-methoxypropoxy)pyrimidin-2-yl]benzyl}-6-(1-methyl-1H-pyrazol-4-yl)-1,2,4-triazolo[4,3-b]pyridazine]	1 to 100	
Cc1ccc2nnc(Cc3cccc(-c4ncc(Br)cn4)c3)n2n1 [Compound A6]	100 to 10000	1 to 100
Cn1cc(-c2ccc3nnc(Cc4cccc(-c5ncc(O)cn5)c4)n3n2)cn1 [Compound A30, 2-{3-[6-(1-methyl-1H-pyrazol-4-yl)-1,2,4-triazolo[4,3-b]pyridazin-3-yl-methyl]phenyl}pyrimidin-5-ol]	100 to 10000	
CN1CCN(CCOc2cnc(-c3cccc(Cc4nnc5ccc(-c6cnn(C)c6)nn45)c3)nc2)CC1 [Compound A37, 3-(3-{5-[2-(4-methylpiperazin-1-yl)ethoxy]pyrimidin-2-yl}benzyl)-6-(1-methyl-1H-pyrazol-4-yl)-1,2,4-triazolo[4,3-b]pyridazine]	1 to 100	
N#Cc1cccc(-c2ccc3nnc(C(F)(F)c4cccc(-c5ncc(-c6cnn(CCN7CCCC7)c6)cn5)c4)n3n2)c1 [Compound A19]	1 to 100	1 to 100
COCCOc1cnc(-c2cccc(Cc3nnc4ccc(-c5cnn(C)c5)nn34)c2)nc1 [Compound A33, 3-{3-[5-(2-methoxyethoxy)pyrimidin-2-yl]benzyl}-6-(1-methyl-1H-pyrazol-4-yl)-1,2,4-triazolo[4,3-b]pyridazine]	100 to 10000	
N#Cc1cccc(-c2ccc3nnc(Cc4cccc(-c5ncc(-c6cnn(CCN7CCCC7)c6)cn5)c4)n3n2)c1 [Compound A20]	1 to 100	1 to 100
Cn1cc(-c2ccc3nnc(Cc4cccc(-c5ncc(-c6cnn(CCN7CCCC7)c6)cn5)c4)n3n2)cn1 [Compound A2, 6-(1-methyl-1H-pyrazol-4-yl)-3-(3-{5-[1-(2-pyrrolidin-1-yl-ethyl)-1H-pyrazol-4-yl]pyrimidin-2-yl}benzyl)-1,2,4-triazolo[4,3-b]pyridazine]	1 to 100	
Cn1cc(-c2ccc3nnc(C4(c5cccc(-c6ncc(-c7cnn(CCN8CCCC8)c7)cn6)c5)CC4)n3n2)cn1 [Compound A8]	1 to 100	1 to 100
CC(c1cccc(-c2ncc(-c3cnn(CCN4CCCC4)c3)cn2)c1)c1nnc2ccc(-c3cnn(C)c3)nn12 (stereo not drawn) [Compound A22]	1 to 100	1 to 100
Cc1ccc2nnc(Cc3cccc(-c4ncc(-c5cnn(CCN6CCCC6)c5)cn4)c3)n2n1 [Compound A9]	1 to 100	1 to 100
COc1cnc(-c2cccc(Cc3nnc4ccc(-c5cnn(C)c5)nn34)c2)nc1 [Compound A35, 3-[3-(5-methoxypyrimidin-2-yl)benzyl]-6-(1-methyl-1H-pyrazol-4-yl)-1,2,4-triazolo[4,3-b]pyridazine]	1 to 100	
CN1CCN(c2cnc(-c3cccc(Cc4nnc5ccc(-c6cnn(C)c6)nn45)c3)nc2)CC1 [Compound A11, 3-{3-[5-(4-methylpiperazin-1-yl)pyrimidin-2-yl]benzyl}-6-(1-methyl-1H-pyrazol-4-yl)-1,2,4-triazolo[4,3-b]pyridazine]	1 to 100	1 to 100
N#Cc1cccc(-c2ccc3nnc(Cc4cccc(-c5ncc(Br)cn5)c4)n3n2)c1 [Compound A5, 3-{3-[3-(5-bromopyrimidin-2-yl)benzyl]-1,2,4-triazolo[4,3-b]-pyridazin-6-yl}benzonitrile]	1 to 100	1 to 100
Cn1cc(-c2ccc3nnc(C4(c5cccc(-c6ncc(Br)cn6)c5)CC4)n3n2)cn1 [Compound A4]	100 to 10000	1 to 100
Cc1cnc(-c2cccc(Cc3nnc4ccc(-c5cnn(CCO)c5)nn34)c2)nc1 [Compound A44, 2-(4-{3-[3-(5-methyl-pyrimidin-2-yl)benzyl]-1,2,4-triazolo[4,3-b]pyridazin-6-yl}pyrazol-1-yl)ethanol]	1 to 100	

More lines, now with the values ahead:

IC50 (Met kinase [1]) [nM]	IC50 (Met kinase [2]) [nM]	SMILES
1 to 100		CN1CCC(COc2cnc(-c3cccc(C(F)(F)c4nnc5ccc(-c6cnn(C)c6)nn45)c3)nc2)CC1 [Compound A42, 3-(difluoro-{3-[5-(1-methylpiperidin-4-ylmethoxy)pyrimidin-2-yl]-phenyl}methyl)-6-(1-methyl-1H-pyrazol-4-yl)-1,2,4-triazolo[4,3-b]pyridazine]
1 to 100	1 to 100	Cc1ccc2nnc(C(F)(F)c3cccc(-c4ncc(N5CCN(C)CC5)cn4)c3)n2n1 [Compound A25]
1 to 100	1 to 100	Cc1ccc2nnc(C(F)(F)c3cccc(-c4ncc(OCC5CCN(C)CC5)cn4)c3)n2n1 [Compound A41, 3-(difluoro-{3-[5-(1-methylpiperidin-4-ylmethoxy)pyrimidin-2-yl]phenyl}methyl)-6-methyl-1,2,4-triazolo[4,3-b]pyridazine]
1 to 100	1 to 100	CN1CCN(c2cnc(-c3cccc(C(F)(F)c4nnc5ccc(-c6cccc(C#N)c6)nn45)c3)nc2)CC1 [Compound A23]
1 to 100	1 to 100	Cc1ccc2nnc(Cc3cccc(-c4ncc(N5CCN(C)CC5)cn4)c3)n2n1 [Compound A17]
1 to 100	1 to 100	Cc1ccc2nnc(C(F)(F)c3cccc(-c4ncc(-c5cnn(CCN6CCCC6)c5)cn4)c3)n2n1 [Compound A21]
1 to 100	1 to 100	CN1CCN(c2cnc(-c3cccc(C(F)(F)c4nnc5ccc(-c6cnn(C)c6)nn45)c3)nc2)CC1 [Compound A16]
1 to 100		Cc1ccc2nnc(C(F)(F)c3cccc(-c4ncc(OCCN5CCOCC5)cn4)c3)n2n1 [Compound A28, 3-(difluoro-{3-[5-(2-morpholin-4-ylethoxy)pyrimidin-2-yl]-phenyl}methyl)-6-methyl-1,2,4-triazolo[4,3-b]pyridazine]
1 to 100	1 to 100	Cn1cc(-c2ccc3nnc(C(F)(F)c4cccc(-c5ncc(OCCN6CCOCC6)cn5)c4)n3n2)cn1 [Compound A12, 3-(difluoro-{3-[5-(2-morpholin-4-ylethoxy)pyrimidin-2-yl]-phenyl}methyl)-6-(1-methyl-1H-pyrazol-4-yl)-1,2,4-triazolo[4,3-b]pyridazine]
1 to 100	1 to 100	Cn1cc(-c2ccc3nnc(C(F)(F)c4cccc(-c5ncc(-c6cnn(CCN7CCCC7)c6)cn5)c4)n3n2)cn1 [Compound A7]
1 to 100		Cn1cc(-c2ccc3nnc(C(F)(F)c4cccc(-c5ncc(OCCO)cn5)c4)n3n2)cn1 [Compound A32, 2-[2-(3-{difluoro-[6-(1-methyl-1H-pyrazol-4-yl)-1,2,4-triazolo[4,3-b]pyridazin-3-yl]methyl}phenyl)pyrimidin-5-yloxy]ethanol]
1 to 100	1 to 100	N#Cc1cccc(-c2ccc3nnc(C(F)(F)c4cccc(-c5ncc(N6CCNCC6)cn5)c4)n3n2)c1 [Compound A24]
1 to 100		COCCOc1cnc(-c2cccc(C(F)(F)c3nnc4ccc(-c5cnn(C)c5)nn34)c2)nc1 [Compound A31, 3-(difluoro-{3-[5-(2-methoxyethoxy)pyrimidin-2-yl]phenyl}methyl)-6-(1-methyl-1H-pyrazol-4-yl)-1,2,4-triazolo[4,3-b]pyridazine]
1 to 100	1 to 100	N#Cc1cccc(-c2ccc3nnc(C(F)(F)c4cccc(-c5ncc(Br)cn5)c4)n3n2)c1 [Compound A3a, 3-(3-{[3-(5-bromopyrimidin-2-yl)phenyl]difluoromethyl}-1,2,4-triazolo[4,3-b]-pyridazin-6-yl)benzonitrile]
1 to 100	1 to 100	Cn1cc(-c2ccc3nnc(C(F)(F)c4cccc(-c5ncccn5)c4)n3n2)cn1 [Compound A26, 3-[difluoro-(3-pyrimidin-2-ylphenyl)methyl]-6-(1-methyl-1H-pyrazol-4-yl)-1,2,4-triazolo[4,3-b]pyridazine]

From patent US8497266B2, “3-(3-pyrimidin-2-ylbenzyl)-1,2,4-triazolo[4,3-b]pyridazine derivatives as MET kinase inhibitors” (Merck Patent GmbH, priority 2008, dated 2013)
